Test results as given in US7667100B2, “Nucleic acid compositions conferring herbicide resistance” (Dow AgroSciences LLC, priority 2002, dated 2010).

Test system: Arabidopsis thaliana
Test: Auxin tolerance testing of stably transformed Arabidopsis thaliana
Assay type: in vivo
Conditions: 50 μL of 3.75 g ae/ha solution on one lower leaf, within five days
Description: One of the auxin tolerance sequences, 129965 (SEQ ID NO:10), was selected for stable expression analysis using a model plant system, Arabidopsis thaliana. This required cloning of the GENEWARE® vector insert into a binary vector suitable for Agrobacterium transformation. Agrobacteriuni encoding the gene of interest as well as a selectable marker was then utilized to transform Arabidopsis plants. Transgenic plants derived from the first generation of seed (T1) were selected based on glufosinate resistance and subsequently tested for tolerance to auxin 4-amino-3,6-dichloropyridine-2-carboxylic acid.
Plant growth and maintenance. Freshly harvested Arabidopsis thaliana (Columbia ecotype) seed was allowed to dry at least 7 days at room temperature in the presence of desiccant. Dried seed was sterilized with a 0.1% Triton X-100 (Sigma Chemical Co., St. Louis, Mo.) and 70% ethanol solution (3 min) using 95% ethanol as a wash (30 sec). After sterilization, seed was suspended in a 0.1% agarose (Sigma Chemical Co., St. Louis, Mo.) solution. The suspended seed was stored at 4° C. for 2 days to complete dormancy requirements and ensure synchronous seed germination (stratification).
Sunshine Mix LP5 (Sun Gro Horticulture Inc., Bellevue, Wash.) was covered with fine vermiculite and subirrigated with Hoagland's solution (see Example 9) until wet. The soil mix was allowed to drain for 24 hours. […]

Structure (SMILES): Nc1cc(Cl)nc(C(=O)O)c1Cl [4-amino-3,6-dichloropyridine-2-carboxylic acid, reference compound]
- auxin symptoms in wild type plants: systemic symptoms of epinasty and leaf cupping, as well as meristem swelling and significant chlorosis
